The target in series [1] is T1, LAT1 (Homo sapiens, UniProt Q01650).
T1 construct: we treated HeLa cells with an excess of leucine (Leu), phenylalanine (Phe), or glycine (Gly) prior to adding LAAM TC-CQDs; endogenous in cells; host or cells: HeLa (also A549, PANC-1, MCF-7, MDA-MB-231, MDA-MB-231 SP in the flow cytometry)
Kind of series: Flow cytometry: uptake rate of LAAM TC-CQDs after BCH pre-treatment. The following applies: across HeLa, A549, PANC-1, MCF-7, MDA-MB-231, MDA-MB-231 SP cells. The class given is cell-based. The text has this:
(§1) To investigate the mechanism that accounts for the cellular uptake of LAAM TC-CQDs, we treated HeLa cells with an excess of leucine (Leu), phenylalanine (Phe), or glycine (Gly) prior to adding LAAM TC-CQDs. Except Gly, both Leu and Phe are known to be high-affinity substrates to LAT1^27. […] This hypothetical mechanism is supported by several lines of evidence.
Flow cytometry. MDA-MB-231 SP cells were sorted according to our previously reported methods^22. Briefly, cells harvested at about 85% confluence were resuspended in RPMI-1640 supplemented with 2% fetal bovine serum (FBS) at a density of 1×10^6 cells/mL and incubated with Hoechst 33342 at a concentration of 5 μg/mL at 37° C. After 90 min, the cells were suspended in cold PBS at a concentration of 1×10^6 cells/mL, filtered through a 40 μm cell strainer to remove cell aggregates, stained with 1 μg/mL propidium iodide (PI), and analyzed and sorted using a FACSDiva (Becton Dickinson, USA). […] The cells were washed 3 times with cold PBS, resuspended in […] of cold PBS, and analyzed by a FACScan flow cytometer (BD, Ann Arbor, Mich.). […] After 12 h, the cells were washed with fresh medium, trypsinized, resuspended in PBS with 0.5% FBS, and analyzed using a BD FACSCalibur (BD Biosciences, USA). Data were analyzed using FlowJo 7.6.
(In general: A flow cytometer gives signals particle by particle.)

For series [2], the target named is T1, LAT1. Nature of the series: LCSM: effect of Leu, Phe, Gly or BCH pre-treatment on uptake of LAAM TC-CQDs. The series is classed as cell-based. The following applies: HeLa cells, excess of the agent prior to adding LAAM TC-CQDs. Here is the method:
as §1
Confocal laser scanning microscope imaging. […] After 8 h, cells were washed with PBS twice, fixed with 4% polyformaldehyde for 30 min at room temperature, followed by addition of DAPI for cell nuclei staining. Finally, the slides were washed three times, fixed, sealed with cover glasses, and imaged with excitation/emission: 561/700 using a confocal laser scanning microscopy (Leica TCS-SP8, Germany). To determine the effects of Leu, Phe, Gly or BCH on CQD uptake, HeLa cells were placed and treated with Leu, Phe, Gly or BCH. Four hours later, LAAM TC-CQDs were added to cells. After an additional 8 h, the cells were washed, fixed, and imaged.

A short description of series [3]: Toxicity evaluation in mice. The class given is in vivo. Here is the method: Toxicity evaluation in mice. Female BALB/c mice were intravenously administered with TPTC (10 mg/kg, 0.05 mL per mice) or TPTC/TC-CQDs (10 mg/kg for TPTC, 0.05 mL per mice) (n=5). Mice treated with saline were used as controls. At selected time points, blood samples were collected in heparinized microhematocrit tubes and centrifuged at a speed of 3000 rpm for 10 min. At the end of the study, mice were euthanized. Major organs, including the heart, liver, spleen, kidney and lung were excised, fixed in formalin, and analyzed.

Series [4] in a line: in vivo. The following applies: BALB/c, mouse. On the procedure: We repeated the characterization studies using A549 tumours. Experiments were carried out according to the same procedures as described above.
The test system of the next series is HeLa tumors. Kind of series: Therapeutic evaluation in mice bearing HeLa tumors. The series is classed as in vivo. The following applies: for tumors fifteen days later: intravenous. On the procedure: We assessed TPTC/TC-CQDs for cancer treatment using mice bearing HeLa tumors. […]
Therapeutic evaluation in tumor-bearing mice. HeLa cells were subcutaneously inoculated into female BALB/c mice. When the tumor volumes reached ˜100 mm^3, the mice were intravenously administered with, saline, TPTC or TPTC/TC-CQDs (n=5). Changes in tumor volume and body weight were monitored daily. The volume of the tumor was calculated according to the following formula: V=D×d^2/2 (where D and d are the longest and shortest diameters of tumor, respectively, measured using a vernier caliper). Relative tumor volumes were calculated as V/V0(V0 is the initial tumor volume when the treatment was started).

A further series concerns CCC-ESF-1 cells. Kind of series: Cellular toxicity test (CCK-8). The following applies: concentration equivalent to 5 ug/mL TPTC. The series is classed as cell-based, Human. On the procedure: (§2) Cellular toxicity tests. […] After 12 h, the cultured medium was removed, and washed with PBS. One hundred microliters of fresh medium containing 10 μL CCK-8 (Sigma) was added to each well. After 2 h incubation at 37° C., the absorbance at 450 nm was measured using a microplate reader.

A further series relates to HeLa cells. Nature of the series: Cellular toxicity test (CCK-8). The series is classed as cell-based, Human. The following applies: concentration equivalent to 5 ug/mL TPTC. On the procedure: as §2
The nature of series [5]: in vivo. The following applies: BALB/c, mouse, iv. On the procedure: We determined the pharmacokinetics of TPTC/TC-CQDs in mice bearing HeLa tumors. TPTC or TPTC/TC-CQDs were administered intravenously at a dose equivalent to 10 mg/kg TPTC, and the blood was collected at various time points. TPTC in the plasma was quantified by high performance liquid chromatography (HPLC). […] A second cohort of mice received the same treatment was subjected to characterization for biodistribution of TPTC based on TPTC fluorescence.
The same lipid composition was used in several FDA-approved liposomal formulations, including Doxil© 38. […] The blood was collected at various time points. TPTC in the plasma was quantified by high performance liquid chromatography (HPLC).

[6] abbreviates: 10 mg/kg TPTC (or equivalent) at days 1, 4, 8, and 12.

Counter-ions that a name gives are not always drawn.

T1 sequence (Q01650 whole entry): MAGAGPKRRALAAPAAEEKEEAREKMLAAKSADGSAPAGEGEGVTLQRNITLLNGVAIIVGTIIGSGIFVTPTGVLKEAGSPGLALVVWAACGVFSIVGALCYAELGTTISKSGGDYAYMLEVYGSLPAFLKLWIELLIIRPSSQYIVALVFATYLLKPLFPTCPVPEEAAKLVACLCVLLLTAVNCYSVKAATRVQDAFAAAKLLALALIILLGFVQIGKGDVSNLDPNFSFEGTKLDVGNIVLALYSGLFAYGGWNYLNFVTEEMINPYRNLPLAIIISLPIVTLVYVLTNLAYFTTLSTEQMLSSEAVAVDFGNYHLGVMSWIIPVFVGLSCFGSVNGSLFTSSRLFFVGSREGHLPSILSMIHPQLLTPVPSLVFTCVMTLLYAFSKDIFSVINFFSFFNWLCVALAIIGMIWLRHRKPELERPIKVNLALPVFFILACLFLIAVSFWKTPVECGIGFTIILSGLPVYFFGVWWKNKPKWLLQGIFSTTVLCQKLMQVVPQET
T1 sequence (P08195 102-630 partner): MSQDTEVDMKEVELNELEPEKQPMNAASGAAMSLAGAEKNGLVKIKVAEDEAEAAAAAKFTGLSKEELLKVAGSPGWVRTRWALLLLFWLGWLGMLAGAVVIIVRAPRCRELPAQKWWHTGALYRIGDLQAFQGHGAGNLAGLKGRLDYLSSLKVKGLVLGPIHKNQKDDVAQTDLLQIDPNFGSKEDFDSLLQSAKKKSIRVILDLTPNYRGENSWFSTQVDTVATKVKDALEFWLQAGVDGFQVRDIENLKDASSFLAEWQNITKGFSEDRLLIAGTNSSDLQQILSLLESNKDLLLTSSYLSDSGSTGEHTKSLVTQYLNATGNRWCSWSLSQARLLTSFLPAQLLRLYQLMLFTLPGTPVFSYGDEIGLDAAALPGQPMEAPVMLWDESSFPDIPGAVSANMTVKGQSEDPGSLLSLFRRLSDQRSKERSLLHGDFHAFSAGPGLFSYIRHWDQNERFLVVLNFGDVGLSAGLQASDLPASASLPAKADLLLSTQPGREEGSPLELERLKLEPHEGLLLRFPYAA

On to `NC1(C(=O)O)CC2CCC1C2` (stereo not shown) [BCH, 2-aminobicyclo-(2,2,1)-heptane-2-carboxylic acid], for which the “cellular uptake rate of LAAM TC-CQDs after pre-treatment with BCH” value on LAT1 [1] is given as ~20%. Besides, at LAT1 [2], the “effect of pre-treatment on uptake of LAAM TC-CQDs” value (“effect of pre-treatment” below) is reported as “dramatically reduces”.

As to `NCC(=O)O` [Gly, glycine], the “effect of pre-treatment” value at LAT1 [2] is listed as “not”.

As for `CC(C)C[C@H](N)C(=O)O` [Leu, leucine], at LAT1 [2], the “effect of pre-treatment” value is “significantly inhibited”.

As to `N[C@@H](Cc1ccccc1)C(=O)O` [Phe, phenylalanine], on LAT1 [2], the “effect of pre-treatment” value is listed as “significantly inhibited”.

As to `CC[C@@]1(O)C(=O)OCc2c1cc1n(c2=O)Cc2cc3c(CN(C)C)c(O)ccc3nc2-1` [TPTC, topotecan hydrochloride], the “H&E analysis of major organs” value in series [3] is “obvious myocardial fiber rupture, diffuse ballooning degeneration of hepatocytes, pulmonary hyperemia, and focal tubular necrosis”. For the same molecule, the body weight result in series [3] (throughout the study) is “weight loss was observed”. Moreover, the half-life – broadly, the time in which the quantity being followed falls by half – in the series “in vivo [4]” stood at 5.9 min; in the series “in vivo [5]” (2 mg/kg) it was 5.4 min; in the series “in vivo [5]” (10 mg/kg), 5 min. In addition, the median survival in the series on HeLa tumors (2 mg/kg TPTC (or equivalent)) was determined as 30 days. In the series with HeLa tumors (setting [6]), the survival was determined as 40 days. Also, the “tumors fifteen days later” value is given as “continuously grew” in the series with HeLa tumors (2 mg/kg TPTC (or equivalent) at days 1, 4, 8, and 12); “continuously grew” in the series with HeLa tumors (setting [6]). In addition, the “toxicity to non-cancerous CCC-ESF-1 cells” value with CCC-ESF-1 cells is on record as “inhibited both cells at a comparable efficiency”. The “toxicity to HeLa cells” value in the series with HeLa cells is listed as “inhibited both cells at a comparable efficiency”.

(Values after patent publication US20220401586A1, “CARBON QUANTUM DOTS AND USES THEREOF” (CNANO MEDICINE CORP., priority 2019, published 2022).)
